Counter-ions that a name gives are not always drawn. Marks after values point to notes of the source that are not given here.

Assay [1] has as its system Yohimbine-induced noradrenergic hyperarousal in Wistar rats. In words: Elevated plus maze, yohimbine-induced noradrenergic hyperarousal, dose response (Example 3). It counts as in vivo. The following applies: 30 min. An excerpt:
Background: Yohimbine is an alpha 2-adrenergic receptor antagonist reported to trigger panic attacks in healthy volunteers and to exacerbate symptoms in patients with panic disorder (Charney et al., 1992 Acta Psychiatr Scand., Vol. 86 (4): 273-282). Peripheral administration of Yohimbine causes noradrenergic mediated hyperarousal in rats as assessed by the EPM paradigm.
Rationale: The drug yohimbine is a natural product used to test a specific pathway, noradrenergic-mediated hyper-arousal. It is well established that yohimbine is an alpha2-adrenergic receptor antagonist and activates the locus coeruleus (LC) and increases noradrenergic signaling (the opposite of alpha2-adrenergic agonists like dexmedetomidine and clonidine). Increased LC activity and noradrenergic signaling makes animals anxious and agitated which can be measured by using the elevated plus maze. In the elevated plus maze, rodents were in the closed arms and explored the open arms depending on their anxiety and agitation (rats and mice normally explore their environments extensively when calm). […] This behavior is correlated to increased level of anxiety caused by noradrenergic mediated hyperarousal.
Animal groups: Rats were distributed in 9 different experimental groups with 12 […] per group as illustrated in Table 6. Each experimental group was also coded so that the experimenter became unaware of the true experimental group at the time EPM trial.
Acclimatization: Male Wistar rats (Janvier; Le Genest St Isle-France) were used for the study. They were purchased at a body weight of 150 g and reached a body weight of about 220 g at the time of use. They were group-housed (3-4 rats per cage) and maintained in a room with controlled temperature (21-22° C.) and a reversed light-dark cycle (12 h/12 h; lights on: 17:30-05:30; lights off: 05:30-17:30).
Drug preparation: All compounds/drugs were prepared in normal saline (0.9% NaCl).
Yohimbine was prepared at a solution of 2.5 mg/mL which when injected i.p. at a dosage volume of 1 mL/kg results in a dose of 2.5 mg/kg. Diazepam was prepared at a solution of 1 mg/mL which when injected i.p. at a dosage volume of 1 mL/kg results in a dose of 1 mg/kg. Latrepirdine dihydrochloride hydrate was prepared at a solution of 7.5, 2.5, 0.75 and 0.25 mg/mL which when injected i.m. at a volume of 100 μL for a rat of 250 g results in doses of 3; 1; 0.3 and 0.1 mg/kg; respectively. Latrepirdine dihydrochloride hydrate was also prepared at […] which when administrated i.p. at a dosage volume of 1 mL/kg results in a dose of 3 mg/kg.
Experimental procedure: The rats were randomly assigned to one of the different experimental groups. Each animal was identified by its group name, cage number, series (day) of experiment, and a number (from 1 to 9) written with permanent ink on its tail. They were handled by an experimenter for about 3 min each day during 1 week prior to the day of EPM trial. The apparatus was a PVC maze covered with Plexiglas and subdivided into four equal exploratory arms (40×10 cm), which were all interconnected by a small platform (10×10 cm). The apparatus was placed 65 cm above the floor. Two arms were opened, and two others were closed with wall (high: 10 cm). After compound administration, rat was placed on the platform opposite a closed arm. The number of entries and the time spent in each arm were recorded during a 5 min period. The animal was considered as entered in an arm when it placed its four paws in the arm. The apparatus was cleaned between each animal using alcohol (70%). Urine and feces were removed from the maze. During the trials, animal handling and the visibility of the operator were minimized as much as possible.
Statistical analysis: Analysis of variance (ANOVA) was performed on the result data. Fisher's PLSD was used for pairwise comparisons and p value≤0.05 were considered significant. […]

For assay [2], the system named is CCK-4 induced panic anxiety in rats. Put plainly: Elevated plus maze, CCK-4 induced panic anxiety (Example 8). In kind it is in vivo, Wistar rats. The following applies: diazepam 1 mg/kg; CCK4 0.2 mg/kg i.p. From the text:
Rationale: In the past two decades panic induction with cholecystokinin-tetrapeptide (CCK-4) as an experimental model of human anxiety has become a focus of intensive research. CCK-4 is a synthetic analog of the endogenous neuropeptide cholecystokinin (CCK), which has been found in different brain regions. Particularly, high concentrations of CCK have been detected in regions that have been implicated in the mediation of panic attacks such as the cerebral cortex, amygdala, hippocampus, and brainstem nuclei. CCK-4 dose dependently induces panic attacks in healthy controls. Thus, CCK-4 has been postulated to fulfil the criteria for an ideal and valid panicogenic agent. […] Therefore, the CCK-4 challenge paradigm can serve as a useful tool to evaluate the anti-panic potential of novel anxiolytic compounds.
Animal groups: Male Wistar Rats were purchased at a body weight of 150 g and reached a body weight of about 220 g at the time of use. Animals were distributed in 6 different experimental groups with 12 […] per group as illustrated in Table 11. Each experimental group was also coded so that the experimenter became unaware of the true experimental group at the time EPM trial.
Study drugs: All compounds/drugs were prepared in saline (0.9% NaCl).
CCK-4 was prepared at a solution of 0.2 mg/ml which when injected i.p. at a dosage volume of 1 ml/kg results in a dose of 0.2 mg/kg.
Diazepam was prepared at a solution of 1 mg/ml which when injected i.p. at a dosage volume of 1 ml/kg results in a dose of 1 mg/kg.
Latrepirdine was prepared at concentrations of 2.5, 7.5, 25 and 37.5 mg/ml which when injected i.m. at a volume of 100 μL for a rat of 250 g results in doses of 1, 3, 10 and 15 mg/kg respectively.
Study design and dosing: The rats were randomly assigned to one of the different experimental groups. Each animal was identified by its group name, cage number, series (day) of experiment, and a number (from 1 to 4) written with permanent ink on its tail. They were handled by an experimenter for about 3 min each day during 1 week prior to the day of EPM trial.
The apparatus is a PVC maze covered with Plexiglas and subdivided into four equal exploratory arms (40×10 cm), which are all interconnected by a small platform (10×10 cm). The apparatus is placed 65 cm above the floor. Two arms are opened, and two others are closed with wall (high: 10 cm).
After compound administration, rat is placed on the platform opposite a closed arm. The number of entries and the time spent in each arm are recorded during a 5 min period. The animal is considered as entered in an arm when it places its four paws in the arm.
Statistical analysis: Data was analyzed using One-Way ANOVA followed by multiple comparison with Dunnett's post-hoc test. All statistical analyses were performed using GraphPad Prism software package (Version 9) and p value below 0.05 was considered as significant.

For assay [3], the system named is rat forced swim test model (depressive-like behavior). In words: Forced swim test in dark phase (Example 4). The following applies: 30 mg/kg, p.o.; versus vehicle saline, 5 minutes observation. It counts as in vivo, Sprague Dawley rats. An excerpt:
Animal groups: Male Sprague Dawley (SD) rats (8-10 weeks old) were grouped housed 2 per cage in standard animal cages with facilities for pelleted food and drinking water in polycarbonate bottle with stainless steel sipper tubes. During the experimental period, animals were housed in a single experimental room. Rats were distributed in 7 different experimental groups with 9-12 rats per group as illustrated in Table 8. Animals were distributed to different groups based on body weight data. Each experimental group was also coded so that the experimenter became unaware of the true experimental group at the time FST trial.
Animals were housed in an environment-controlled room at 22±3° C. and relative humidity of 30 to 70 percent. During the study, 12/12 light/dark cycles were maintained. Lights of the acclimatization area were switched off at 06:00 PM. All experiments were carried out at ambient temperature under dark phase of lighting (between 06:00 PM to 06:00 AM). Adequate fresh air supply of 12-15 air changes/hour was maintained in the experimental room. The maximum and minimum temperature and relative humidity in the experimental rooms was recorded once daily. The relative humidity in the experimental room was calculated daily from dry and wet bulb temperature recordings.
Swim 1 was carried out between 18:30 to 21:30.
Swim 2 was carried out between 19:30 to 21:30. Animals were administered test compounds from 18:30 onwards in staggered manner 60 minutes before FST 2.
Forced swim test was carried out in dark phase
On Day 1, animals were subjected to forced swim test training for 15 minutes (Swim 1) and on Day 2, Swim 2 was carried out post treatment.
On day 2 animals were dosed with respective treatment 60 min prior to performing FST.
Forced swim test (Swim 2) was scored manually with no video recording.
Forced swim test (FST), was used to study the depressive-like behavior in rodents. The test was carried out in transparent cylindrical glass containers measuring 46 cm in height and 20 cm in diameter.
There were 2 swim sessions, 24 h apart. The first session, Swim 1 was the pretest/training stage (15 min) and the second session, Swim 2, was the test stage (8 min).
In swim 2, first 1-minute data was excluded from analysis and rest 7 minutes data was considered. In 7 minutes, data, it was divided 5 minutes and 2 minute.
Twenty-four hours after the start of Swim 1, the test swim (Swim 2) was carried out.
Rat was placed in the water-filled cylinder for 8 min (Swim 2).
The duration of time spent immobile, swimming, and climbing was observed by an observer blind to the treatment group.
Immobility period: A rat was judged to be immobile when it remained floating in the water without struggling and was making only those movements necessary to keep its head above water.
Statistical analysis: One Way ANOVA, Dunnet's multiple comparison test was applied with respect to vehicle saline and Tukey's multiple comparison test was applied to compare the data in between the groups using GraphPad Prism version 9 software.

The subject of assay [4] is mouse behavior (SmartCube signature). In words: SmartCube system behavioral classification (Example 6). The following applies: IP. In kind it is in vivo, Male C57/B16 mice. An excerpt: Dexmedetomidine and latrepirdine have anti-psychotic effects, when tested in the SmartCube® system (Psychogenics, Inc., Paramus, NJ; See also U.S. Pat. No. 7,580,798 incorporated herein by reference in its entirety). This system uses features derived from mouse behavioral data to first, classify mice on compound versus vehicle. This measure indicates how well the system can differentiate between a mouse on compound versus a mouse on vehicle. Secondly, by comparing the features to a proprietary reference database of behavioral feature sets that are linked to classes of marketed drugs known to treat neuro-psychiatric symptoms SmartCube® assigns a signature to the behavior. Thus, the system can be used as a model to identify both the activity and the psychiatric effect of a compound by comparing the effects of the compounds against drugs with known validated effects.
By comparing the responses of animals to known drugs, the test drug can be categorized according to its function; for example, hallucinogen, anxiogenic, analgesic, cognitive enhancer, psychostimulant, mood stabilizer, high dose anti-psychotic, anti-psychotic, sedative/hypnotic, anxiolytic, high dose antidepressant, antidepressant.
Once all features are extracted from the raw data through an automated pipeline, proprietary bioinformatics algorithms are used to decorrelate groups of features and find the combination of values that best separate different groups of interest. For each compound, at each dose, they system provides a probability that the drug is active and breaks down such putative activity into the different classes of interest.
SmartCube reference data used herein include anti-psychotics and anti-depressants tested at several dose ranges. “Anti-psychotic” versus “high dose anti-psychotic” as indicated in the legend, reflects the notion that anti-psychotics reference data is dose dependent. Anti-psychotics, when administered at higher doses, can engage additional receptor systems, and thus affect mouse behavior differently. The same applies for different doses of anti-depressants.
Animals: Male C57/B16 mice (N=12 per group) from Taconic Laboratories were used. Upon receipt, mice were group-housed in OPTI mouse ventilated cages with 4 mice per cage. Mice were acclimated to the colony room for at least one week prior to test and subsequently tested at approximately 8-9 weeks of age. All animals were examined, handled, and weighed prior to initiation of the study to assure adequate health and suitability and to minimize non-specific stress associated with manipulation.
All compounds tested were formulated in NP3 (vehicle solution): 5% Pharmasolve; 30% P3 (1:1:1 PEG200: PEG400: propylene glycol); 65% saline; pH is 5.1-6.
Test groups were: • Vehicle: NP3 • Dexmedetomidine at 0.005 and 0.010 mg/kg • Latrepirdine at 1 and 10 mg/kg • Dexmedetomidine and latrepirdine combinations (in mg/kg): 0.005/1.0; 0.005/10; 0.010/1.0; 0.010/10
Test compounds were injected intraperitoneally (IP) for 15 min before animals were placed in SmartCube for assessment.
Antipsychotic: SmartCube classifies the mouse behavior with test compound as similar to treatment with marketed anti-psychotics at therapeutically relevant doses.
High Dose Antipsychotic: SmartCube classifies the mouse behavior on test compound as similar to treatment with marketed anti-psychotics at doses that are considered as high therapeutically. High doses of anti-psychotics often cause sedation.
The results for the class analyses are presented as standardized bar charts with percentages that sum to 100 for each dose. The percentage indicates the probability the classifier can differentiate between the vehicle group and test group. The pattern indicates what class signature was assigned.

Setting [5] is: diazepam 1 mg/kg, i.p., yohimbine hydrochloride 2.5 mg/kg i.p.

For the compound `CN1C(=O)CN=C(c2ccccc2)c2cc(Cl)ccc21` [Diazepam], in assay [1] (setting [5]), the “Percent increase as referred to the Vehicle level, Entries” value came out at 294% and the “Percent increase as referred to the Vehicle level, Time” value is 642%. In addition, in assay [2], the “Entries, % increase as compared to CCK-4/Vehicle” value was “(400.00) **** %”; the “Entries, Mean ± SEM” value came to 9.5±0.5 n; the “Time, % increase as compared to CCK-4/Vehicle” value is “(652.27) **** %”; the “Time, Mean ± SEM” value came out at 99.3 ± 3.8 s.

Regarding `CNCCCN1c2ccccc2CCc2ccccc21` [desipramine hydrochloride], in assay [3], the climbing time result is “increase”, the immobility time result was “significant decrease” and the swimming time result is given as “failed to show any significant effect”.

For the compound `Cc1cccc([C@H](C)c2cnc[nH]2)c1C` [dexmedetomidine, (+) 4-(S)-[1-(2,3-dimethylphenyl)ethyl]-1H-imidazole], the SmartCube signature result in assay [4] (0.005 and 0.010 mg/kg) is listed as “antipsychotic signature”. Besides, the SmartCube total activity in assay [4] (dexmedetomidine 0.005 mg/kg) worked out at 9%; in assay [4] (dexmedetomidine 0.010 mg/kg), 40%.

Turning to `COC(=O)[C@@H]1[C@H]2C[C@H]3c4[nH]c5ccccc5c4CCN3C[C@@H]2CC[C@@H]1O` [yohimbine], the “number of visits to and time spent into the open arms versus vehicle-treated saline rats” value in assay [1] (yohimbine 2.5 mg/kg i.p.) is recorded as “marked significant decrease”.

The record behind these values is patent US20260325500A1, “METHODS AND COMPOSITIONS FOR TREATING ACUTE STRESS DISORDER” (BioXcel Therapeutics, Inc., priority 2022, published 2026).
